Patent US7728012B2, “Carboxamide compounds and their use as calpain inhibitors” (Abbott GmbH & Co. KG, priority 2006, dated 2010)

What was measured:
Type in all cases: biochemical
[1] = biological target: T1, recombinant human cathepsin S (Homo sapiens, UniProt P25774); assay: Cathepsin S kinetic fluorescence enzyme inhibition assay; conditions: selectivity ratio versus calpain I
T1 construct: purchased Calbiochem 219343; host or cells: E. coli
Outline: (§1)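 Cathepsin B (0.25 nM, human liver) with 100 μM Z-Phe-Arg-AMC; L (1 nM, human liver) with 2 μM Z-Phe-Arg-AMC; S (0.5 nM, recombinant) with 20 μM Z-Val-Val-Arg-AMC. pH 6.0 MES buffer, 2.5 mM L-cysteine, room temperature. Kinetic fluorescence (ex 390/em 460 nm); apparent Ki from IC50 by Cheng-Prusoff.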

[2] = biological target: T2, calpain-I isolated from human erythrocytes (Homo sapiens, UniProt P07384); assay: Calpain I kinetic fluorescence enzyme inhibition assay; conditions: apparent Ki from IC50 by Cheng-Prussoff; average of 2 to 4 dose-effect plots
T2 construct: calpain-I—isolated from human erythrocytes; purchased Calbiochem 208713; host or cells: human erythrocytes (tissue isolate)
T2 sequence (P07384 1-714): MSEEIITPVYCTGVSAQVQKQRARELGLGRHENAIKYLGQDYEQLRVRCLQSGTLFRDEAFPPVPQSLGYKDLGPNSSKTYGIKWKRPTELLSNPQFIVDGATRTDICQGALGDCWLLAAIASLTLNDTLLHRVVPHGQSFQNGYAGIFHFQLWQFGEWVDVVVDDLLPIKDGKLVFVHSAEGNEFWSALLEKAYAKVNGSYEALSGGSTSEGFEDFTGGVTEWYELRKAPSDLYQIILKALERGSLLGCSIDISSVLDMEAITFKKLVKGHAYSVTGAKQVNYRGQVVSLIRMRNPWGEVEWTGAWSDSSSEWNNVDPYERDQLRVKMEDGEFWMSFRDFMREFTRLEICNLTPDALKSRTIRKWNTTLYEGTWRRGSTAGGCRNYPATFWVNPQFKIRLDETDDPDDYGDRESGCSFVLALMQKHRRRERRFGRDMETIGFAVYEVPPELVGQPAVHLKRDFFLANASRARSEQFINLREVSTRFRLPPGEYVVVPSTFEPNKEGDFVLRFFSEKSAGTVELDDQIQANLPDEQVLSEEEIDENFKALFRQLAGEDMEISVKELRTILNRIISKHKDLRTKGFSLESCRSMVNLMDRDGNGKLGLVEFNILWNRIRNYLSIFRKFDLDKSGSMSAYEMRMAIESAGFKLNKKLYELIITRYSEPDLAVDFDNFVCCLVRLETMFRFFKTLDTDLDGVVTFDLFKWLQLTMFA
T2 sequence (P04632 1-268 partner): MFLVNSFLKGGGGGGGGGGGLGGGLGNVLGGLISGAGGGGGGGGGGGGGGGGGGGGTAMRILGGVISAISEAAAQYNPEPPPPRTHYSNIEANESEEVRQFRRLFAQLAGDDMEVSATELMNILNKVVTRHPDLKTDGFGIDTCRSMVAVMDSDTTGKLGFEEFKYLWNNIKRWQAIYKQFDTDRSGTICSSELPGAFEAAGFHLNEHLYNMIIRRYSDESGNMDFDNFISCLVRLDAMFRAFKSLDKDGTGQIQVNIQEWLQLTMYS

[3] = biological target: T3, cathepsin K activated from recombinant human procathepsin K (Homo sapiens, UniProt P43235); assay: Cathepsin K kinetic fluorescence enzyme inhibition assay; conditions: selectivity ratio versus calpain I
T3 construct: purchased Calbiochem 342001; host or cells: E. coli
T3 sequence (P43235 115-329): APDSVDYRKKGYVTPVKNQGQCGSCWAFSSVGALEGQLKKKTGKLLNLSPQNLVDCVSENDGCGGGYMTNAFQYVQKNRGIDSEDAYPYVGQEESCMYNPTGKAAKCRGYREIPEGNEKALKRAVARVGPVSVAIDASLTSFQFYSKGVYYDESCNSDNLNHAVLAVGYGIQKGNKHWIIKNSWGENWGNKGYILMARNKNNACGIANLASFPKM

[4] = biological target: T4, cathepsin L isolated from human liver (Homo sapiens, UniProt P07711); assay: Cathepsin L kinetic fluorescence enzyme inhibition assay; conditions: selectivity ratio versus calpain I
T4 construct: cathepsin L—isolated from human liver; purchased Calbiochem 219402; host or cells: human liver (tissue isolate)
T4 sequence (P07711 114-333): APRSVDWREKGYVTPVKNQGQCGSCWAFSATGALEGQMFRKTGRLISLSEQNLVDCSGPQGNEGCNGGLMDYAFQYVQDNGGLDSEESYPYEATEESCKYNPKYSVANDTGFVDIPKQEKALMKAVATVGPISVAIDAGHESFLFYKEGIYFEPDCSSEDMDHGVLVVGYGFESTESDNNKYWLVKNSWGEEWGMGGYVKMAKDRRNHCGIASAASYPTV
Outline: as §1

[5] = biological target: T5, cathepsin B isolated from human liver (Homo sapiens, UniProt P07858); assay: Cathepsin B kinetic fluorescence enzyme inhibition assay; conditions: selectivity ratio versus calpain I
T5 construct: cathepsin B—isolated from human liver; purchased Calbiochem 219362; host or cells: human liver (tissue isolate)
Outline: as §1

T1 sequence (P25774 115-331): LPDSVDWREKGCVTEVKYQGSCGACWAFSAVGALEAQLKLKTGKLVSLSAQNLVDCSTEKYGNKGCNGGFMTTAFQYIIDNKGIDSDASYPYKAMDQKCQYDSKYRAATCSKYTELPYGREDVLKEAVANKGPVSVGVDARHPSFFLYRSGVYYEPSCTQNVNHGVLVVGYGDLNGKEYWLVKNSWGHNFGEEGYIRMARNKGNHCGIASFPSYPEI

Compound | Sel cat. S (Ki(cathepsin S)/Ki(calpain) ratio) [1] | Ki [2] [nM] | Sel cat. K (Ki(cathepsin K)/Ki(calpain) ratio) [3] | Sel cat. L (Ki(cathepsin L)/Ki(calpain) ratio) [4] | Sel cat. B (Ki(cathepsin B)/Ki(calpain) ratio) [5]
NC(=O)C(=O)C(Cc1ccccc1)NC(=O)c1cccnc1-n1ccc(-c2cccc3c2OCC3)n1 (centres unmarked) [Example 164, N-[3-Amino-2,3-dioxo-1-(phenylmethyl)propyl]-2-[3-(2,3-dihydro-1-benzofuran-7-yl)-1H-pyrazol-1-yl]pyridine-3-carboxamide] | ++ (Ki(cathepsin S)/Ki(calpain) ratio of ≧100) | ≤ 40 | ++ (Ki(cathepsin K)/Ki(calpain) ratio of ≧30) | ++ (Ki(cathepsin L)/Ki(calpain) ratio of ≧50) | + (10≦Ki(cathepsin B)/Ki(calpain)<30)
NC(=O)C(=O)C(Cc1ccccc1)NC(=O)c1cccnc1-n1ccc(-c2ccccc2OC(F)F)n1 (centres unmarked) [Example 166, N-[3-Amino-2,3-dioxo-1-(phenylmethyl)propyl]-2-(3-{2-[(difluoromethyl)oxy]phenyl}-1H-pyrazol-1-yl)pyridine-3-carboxamide] | ++ (Ki(cathepsin S)/Ki(calpain) ratio of ≧100) | ≤ 40 | ++ (Ki(cathepsin K)/Ki(calpain) ratio of ≧30) | ++ (Ki(cathepsin L)/Ki(calpain) ratio of ≧50) | + (10≦Ki(cathepsin B)/Ki(calpain)<30)
NC(=O)C(=O)C(Cc1ccccc1)NC(=O)c1cccnc1-n1ccc(-c2cccc(OC(F)(F)F)c2)n1 (centres unmarked) [Example 168, N-[3-Amino-2,3-dioxo-1-(phenylmethyl)propyl]-2-(3-{3-[(trifluoromethyl)oxy]phenyl}-1H-pyrazol-1-yl)pyridine-3-carboxamide] | ++ (Ki(cathepsin S)/Ki(calpain) ratio of ≧100) | ≤ 40 | + (10≦Ki(cathepsin K)/Ki(calpain)<30) | ++ (Ki(cathepsin L)/Ki(calpain) ratio of ≧50) | + (10≦Ki(cathepsin B)/Ki(calpain)<30)
NC(=O)C(=O)C(Cc1ccccc1)NC(=O)c1cccnc1-n1cc2c(n1)-c1ccccc1SC2 (centres unmarked) [Example 173, N-[3-Amino-2,3-dioxo-1-(phenylmethyl)propyl]-2-thiochromeno[4,3-c]pyrazol-2(4H)-ylpyridine-3-carboxamide] | ++ (Ki(cathepsin S)/Ki(calpain) ratio of ≧100) | ≤ 40 | + (10≦Ki(cathepsin K)/Ki(calpain)<30) | ++ (Ki(cathepsin L)/Ki(calpain) ratio of ≧50) | + (10≦Ki(cathepsin B)/Ki(calpain)<30)
NC(=O)C(=O)C(Cc1ccccc1)NC(=O)c1cccnc1-n1cc2c(n1)-c1ccccc1S(=O)(=O)C2 (centres unmarked) [Example 174, N-[3-Amino-2,3-dioxo-1-(phenylmethyl)propyl]-2-(5,5-dioxidothiochromeno[4,3-c]pyrazol-2(4H)-yl)pyridine-3-carboxamide] | ++ (Ki(cathepsin S)/Ki(calpain) ratio of ≧100) | ≤ 40 | + (10≦Ki(cathepsin K)/Ki(calpain)<30) | ++ (Ki(cathepsin L)/Ki(calpain) ratio of ≧50) | + (10≦Ki(cathepsin B)/Ki(calpain)<30)
NC(=O)C(=O)C(Cc1ccccc1)NC(=O)c1cccnc1-n1cc2c(n1)-c1cccc(Cl)c1OC2 (centres unmarked) [Example 175, N-[3-Amino-2,3-dioxo-1-(phenylmethyl)propyl]-2-(6-chlorochromeno[4,3-c]pyrazol-2(4H)-yl)pyridine-3-carboxamide] | ++ (Ki(cathepsin S)/Ki(calpain) ratio of ≧100) | ≤ 40 | ++ (Ki(cathepsin K)/Ki(calpain) ratio of ≧30) | ++ (Ki(cathepsin L)/Ki(calpain) ratio of ≧50) | ++ (Ki(cathepsin B)/Ki(calpain) ratio of ≧30)
COc1ccc2c(c1)-c1nn(-c3ncccc3C(=O)NC(Cc3ccccc3)C(=O)C(N)=O)cc1CO2 (centres unmarked) [Example 183, N-[3-Aamino-2,3-dioxo-1-(phenylmethyl)propyl]-2-[8-(methyloxy)chromeno[4,3-c]pyrazol-2(4H)-yl]pyridine-3-carboxamide] | ++ (Ki(cathepsin S)/Ki(calpain) ratio of ≧100) | ≤ 40 | + (10≦Ki(cathepsin K)/Ki(calpain)<30) | ++ (Ki(cathepsin L)/Ki(calpain) ratio of ≧50) | + (10≦Ki(cathepsin B)/Ki(calpain)<30)
NC(=O)C(=O)C(Cc1ccccc1)NC(=O)c1cccnc1-n1cc(Cl)c(-c2ccc(F)cc2)n1 (centres unmarked) [Example 184, N-[3-Amino-2,3-dioxo-1-(phenylmethyl)propyl]-2-[4-chloro-3-(4-fluorophenyl)-1H-pyrazol-1-yl]pyridine-3-carboxamide] | ++ (Ki(cathepsin S)/Ki(calpain) ratio of ≧100) | 40 to 100 | + (10≦Ki(cathepsin K)/Ki(calpain)<30) | ++ (Ki(cathepsin L)/Ki(calpain) ratio of ≧50) | + (10≦Ki(cathepsin B)/Ki(calpain)<30)
NC(=O)C(=O)C(Cc1ccccc1)NC(=O)c1cccnc1-n1ccc(C23CC4CC(CC(C4)C2)C3)n1 (centres unmarked) [Example 193, N-[3-Amino-2,3-dioxo-1-(phenylmethyl)propyl]-2-(3-tricyclo[3.3.1.1^3,7]dec-1-yl-1H-pyrazol-1-yl)pyridine-3-carboxamide] | ++ (Ki(cathepsin S)/Ki(calpain) ratio of ≧100) | ≤ 40 | ++ (Ki(cathepsin K)/Ki(calpain) ratio of ≧30) | ++ (Ki(cathepsin L)/Ki(calpain) ratio of ≧50) | ++ (Ki(cathepsin B)/Ki(calpain) ratio of ≧30)
N-[3-Amino-2,3-dioxo-1-(phenylmethyl)propyl]-2-[3-(3,5-dichlorophenyl)-1H-pyrazol-1-yl]pyridine-3-carboxamide [Example 89] | ++ (Ki(cathepsin S)/Ki(calpain) ratio of ≧100) | 40 to 100 | + (10≦Ki(cathepsin K)/Ki(calpain)<30) | ++ (Ki(cathepsin L)/Ki(calpain) ratio of ≧50) | + (10≦Ki(cathepsin B)/Ki(calpain)<30)
